Each structure is given as a SMILES string. Activity calls are given as the source filed them. The rule behind the calls is not given here.

The subject of data set [1] is Cortical neurone. Put plainly: Neuroprotective activity against oxygen glucose deprivation induced ischemic stroke model in primary C57BL/6J E14-17 mouse Cortical neurons assessed as increase in cell viability at 0.5 to 20 uM incubated for 24 hrs by CCK-8 assay. It counts as functional, cell-based. As to conditions: dose 0.5-20 µM. In general terms: Tetrazolium assays rely on reduction of a dye to a coloured formazan, in cell work by metabolically active cells.

Data set [2] deals with Cortical neurone. Put plainly: Cytotoxicity against primary C57BL/6J E14-17 mouse Cortical neuron assessed as decrease in cell viability upto 50 uM incubated for 24 hrs by CCK-8 assay. The data set is classed as toxicity, cell-based.
Data set [3] has as its system Cortical neurone. In words: Neuroprotective activity against oxygen glucose deprivation induced ischemic stroke model in primary C57BL/6J E14-17 mouse Cortical neurons assessed as increase in cell viability at 1 uM incubated for 24 hrs by CCK-8 assay (Rvb= 57.43 +/- 2.54 %). It counts as functional.
Data set [4] relates to Cortical neurone. In words: Cytotoxicity against primary C57BL/6J E14-17 mouse Cortical neuron assessed as decrease in cell viability at 1 uM incubated for 24 hrs by CCK-8 assay relative to control. It counts as toxicity, cell-based.
The subject of data set [5] is Cortical neurone. In words: Cytotoxicity against primary C57BL/6J E14-17 mouse Cortical neuron assessed as decrease in cell viability at 10 uM incubated for 24 hrs by CCK-8 assay relative to control. The data set is classed as toxicity, cell-based.
The test system of data set [6] is Cortical neurone. Put plainly: Neuroprotective activity against oxygen glucose deprivation induced ischemic stroke model in primary C57BL/6J E14-17 mouse Cortical neurons assessed as increase in cell viability at 10 uM incubated for 24 hrs by CCK-8 assay (Rvb= 57.43 +/- 2.54 %). The data set is classed as functional.

Consider `CN(C)[C@H]1CC[C@@H](c2ccc(Cl)c(Cl)c2)c2ccccc21`, for which, in the data set with Cortical neurone [1], the outcome was Active. Also, the Activity entry in the data set with Cortical neurone [2] was “Non-Toxic”.
Consider `Clc1ccc(CN[C@@H]2CC[C@@H](c3ccc(Cl)c(Cl)c3)c3ccccc32)cc1Cl`, for which the Activity was found to be 58.46% in the data set on Cortical neurone [3], 101.08% in the data set with Cortical neurone [4], 105.41% in the data set on Cortical neurone [5] and 55.64% in the data set on Cortical neurone [6].
On to `CC(N[C@@H]1CC[C@@H](c2ccc(Cl)c(Cl)c2)c2ccccc21)c1ccccc1` (some centres not stated), for which the Activity in the data set on Cortical neurone [3] is recorded as 45.67%; in the data set on Cortical neurone [4], 98.48%; in the data set with Cortical neurone [5] it was 45.32%; in the data set on Cortical neurone [6], 51.75%.
The like results for `Clc1ccc([C@@H]2CC[C@@H](NCCN3CCNCC3)c3ccccc32)cc1Cl` were, in that order, 56.76%, 90.76%, 31.8% and 28.28%.
As to `CN[C@H]1CC[C@@H](c2ccc(Cl)c(Cl)c2)c2ccccc21`, the outcome in the data set with Cortical neurone [1] was Active.
Take `CN[C@@H]1CC[C@@H](c2ccc(Cl)c(Cl)c2)c2ccccc21` (racemic): the Activity came out at 59.29% in the data set with Cortical neurone [3], 94.5% in the data set on Cortical neurone [4], 92.08% in the data set with Cortical neurone [5] and 65.74% with Cortical neurone [6].
For `CCCCCCCCN(C)[C@@H]1CC[C@@H](c2ccc(Cl)c(Cl)c2)c2ccccc21` (racemic), in the data set with Cortical neurone [1], the outcome was Active. In addition, the Activity result in the data set on Cortical neurone [2] is “Non-Toxic”.
On to `CCCCCCCCN(C)[C@H]1CC[C@@H](c2ccc(Cl)c(Cl)c2)c2ccccc21` (racemic), for which the result with Cortical neurone [1] was Active.
`CN[C@H]1CC[C@@H](c2ccc(Cl)c(Cl)c2)c2ccccc21` (racemic) [SERTRALINE]: the Activity was determined as 60.36% in the data set on Cortical neurone [3] (24 h, 1 µM); 96.32% in the data set on Cortical neurone [4]; 92.98% in the data set with Cortical neurone [5]; 45.76% in the data set with Cortical neurone [6] (24 h, 10 µM).
Take `NCCN[C@@H]1CC[C@@H](c2ccc(Cl)c(Cl)c2)c2ccccc21` (relative stereo): the Activity is listed as 24.79% in the data set on Cortical neurone [3], 103.68% in the data set with Cortical neurone [4], 24.73% in the data set with Cortical neurone [5] and 3.53% with Cortical neurone [6].
In the case of `NCCCCCCN[C@@H]1CC[C@@H](c2ccc(Cl)c(Cl)c2)c2ccccc21` (relative stereo), the Activity is 48.84% in the data set with Cortical neurone [4], 22.62% in the data set on Cortical neurone [5] and 3.43% with Cortical neurone [6].
Consider `Clc1ccc([C@@H]2CC[C@@H](NCc3ccc4c(c3)OCO4)c3ccccc32)cc1Cl` (relative stereo), for which the Activity in the data set with Cortical neurone [3] is given as 63.19%; in the data set on Cortical neurone [4] it was 104.95%; in the data set on Cortical neurone [5] it was 95.94%; with Cortical neurone [6], 57.62%.
With `Clc1ccc([C@@H]2CC[C@@H](NCc3cccc4ccccc34)c3ccccc32)cc1Cl` (relative stereo), the Activity in the data set with Cortical neurone [3] came to 61.36%; in the data set on Cortical neurone [4], 95.27%; in the data set on Cortical neurone [5], 96.52%; in the data set on Cortical neurone [6], 65.01%.
Taken in the same sequence, the figures for `COc1ccc(CN[C@@H]2CC[C@@H](c3ccc(Cl)c(Cl)c3)c3ccccc32)cc1` (relative stereo) were 56.57%, 98.78%, 85.78% and 60.68%.
The like results for `CC(C)(C)OC(=O)N1CCN(CCN[C@@H]2CC[C@@H](c3ccc(Cl)c(Cl)c3)c3ccccc32)CC1` (relative stereo) were, in that order, 63.76%, 100.27%, 93.92% and 57.97%.
Taken in the same sequence, the figures for `CCCCN[C@@H]1CC[C@@H](c2ccc(Cl)c(Cl)c2)c2ccccc21` (relative stereo) were 54.27%, 95.75%, 94.94% and 50.99%.
In the case of `COc1cccc(CN[C@@H]2CC[C@@H](c3ccc(Cl)c(Cl)c3)c3ccccc32)c1` (relative stereo), the Activity with Cortical neurone [3] was 51.08%; with Cortical neurone [4], 95.52%; in the data set with Cortical neurone [5] it was 97.09%; in the data set on Cortical neurone [6], 47.87%.
The like results for `NCCCCN[C@@H]1CC[C@@H](c2ccc(Cl)c(Cl)c2)c2ccccc21` (relative stereo) were, in that order, 33.3%, 90.11%, 22.9% and 3.07%.
Turning to `Cc1ccc(CN[C@@H]2CC[C@@H](c3ccc(Cl)c(Cl)c3)c3ccccc32)cc1` (relative stereo), the Activity is 60.9% in the data set with Cortical neurone [3], 92.92% in the data set on Cortical neurone [4], 84.46% with Cortical neurone [5] and 59.01% in the data set on Cortical neurone [6].
Taken in the same sequence, the figures for `FC(F)(F)c1cccc(CN[C@@H]2CC[C@@H](c3ccc(Cl)c(Cl)c3)c3ccccc32)c1` (relative stereo) were 65.74%, 90.68%, 85.87% and 59%.
The like results for `Clc1ccc([C@@H]2CC[C@@H](NCC3CCCCC3)c3ccccc32)cc1Cl` (relative stereo) were, in that order, 64.56%, 100.42%, 103.51% and 62.02%.
`CCCCCC(C)N[C@@H]1CC[C@@H](c2ccc(Cl)c(Cl)c2)c2ccccc21` (relative stereo): the Activity in the data set with Cortical neurone [3] amounted to 58.02%; in the data set on Cortical neurone [4], 89.48%; in the data set with Cortical neurone [5] it was 84.74%; with Cortical neurone [6], 60.07%.
For the compound `O=C(Cc1ccccc1)N[C@@H]1CC[C@@H](c2ccc(Cl)c(Cl)c2)c2ccccc21` (relative stereo), the outcome with Cortical neurone [1] was Active. In addition, the Activity entry in the data set on Cortical neurone [2] is reported as “Toxic”.
As to `CCCCCCN[C@@H]1CC[C@@H](c2ccc(Cl)c(Cl)c2)c2ccccc21` (relative stereo), the Activity was 62.38% in the data set with Cortical neurone [3]; 98.87% with Cortical neurone [4]; 113.14% in the data set on Cortical neurone [5]; 81.04% in the data set on Cortical neurone [6]; “Dose-Dependent Effect” in the data set on Cortical neurone [1]; “Toxic” in the data set with Cortical neurone [2].
As for `C=CCC(=O)N[C@@H]1CC[C@@H](c2ccc(Cl)c(Cl)c2)c2ccccc21` (relative stereo), in the data set on Cortical neurone [1], the outcome was Active. Also, the Activity result with Cortical neurone [2] is given as “Toxic”.
Take `Clc1ccc([C@@H]2CC[C@@H](NCCCCc3ccccc3)c3ccccc32)cc1Cl` (relative stereo): the Activity in the data set with Cortical neurone [3] is on record as 57.11%; in the data set with Cortical neurone [4] it was 98.28%; with Cortical neurone [5] it was 94.37%; in the data set on Cortical neurone [6], 58.59%.
In the case of `Clc1ccc([C@@H]2CC[C@@H](NC3CC3)c3ccccc32)cc1Cl` (relative stereo), the Activity is 62.49% in the data set with Cortical neurone [3], 100.03% in the data set on Cortical neurone [4], 109.93% in the data set with Cortical neurone [5] and 66.66% in the data set on Cortical neurone [6].
For `CCCC(=O)N[C@@H]1CC[C@@H](c2ccc(Cl)c(Cl)c2)c2ccccc21` (relative stereo), the outcome in the data set with Cortical neurone [1] was Active. In the data set with Cortical neurone [2], the Activity result is listed as “Toxic”.
As for `O=C(CCCCl)N[C@@H]1CC[C@@H](c2ccc(Cl)c(Cl)c2)c2ccccc21` (relative stereo), the Activity is 63.86% with Cortical neurone [3], 92.02% with Cortical neurone [4], 84.35% with Cortical neurone [5] and 58.31% in the data set with Cortical neurone [6].
Taken in the same sequence, the figures for `CC(C)(C)c1ccc(CN[C@@H]2CC[C@@H](c3ccc(Cl)c(Cl)c3)c3ccccc32)cc1` (relative stereo) were 56.78%, 93.91%, 93.23% and 60.98%.
The like results for `CC(C)(C)OC(=O)NCCN[C@@H]1CC[C@@H](c2ccc(Cl)c(Cl)c2)c2ccccc21` (relative stereo) were, in that order, 58.81%, 98.85%, 94.48% and 54.41%.
Taken in the same sequence, the figures for `Clc1ccc([C@@H]2CC[C@@H](NCCc3c[nH]c4ccccc34)c3ccccc32)cc1Cl` (relative stereo) were 52.97%, 104.13%, 96.14% and 59.42%.
For `CC(C)CN[C@@H]1CC[C@@H](c2ccc(Cl)c(Cl)c2)c2ccccc21` (relative stereo), the Activity was determined as 56.47% in the data set on Cortical neurone [3], 96.1% in the data set with Cortical neurone [4], 73.99% in the data set with Cortical neurone [5] and 30.22% with Cortical neurone [6].
In the case of `Clc1ccc([C@@H]2CC[C@@H](N3CCCC3)c3ccccc32)cc1Cl` (relative stereo), the result in the data set with Cortical neurone [1] was Active. Besides, the Activity result in the data set with Cortical neurone [2] is listed as “Toxic”.
As to `CCCN[C@@H]1CC[C@@H](c2ccc(Cl)c(Cl)c2)c2ccccc21` (relative stereo), the Activity with Cortical neurone [3] was 62.89%; in the data set with Cortical neurone [4] it was 96.43%; with Cortical neurone [5], 100.55%; with Cortical neurone [6], 55.53%.
The like results for `N[C@@H]1CC[C@@H](c2ccc(Cl)c(Cl)c2)c2ccccc21` (relative stereo) [DASOTRALINE] were, in that order, 57.14%, 99.05%, 95.38% and 56.94%.

The record behind these values is ChEMBL document CHEMBL5360547 (Eur J Med Chem, 2023).
